What was measured:
[1] = target: T1, TTK (Homo sapiens, UniProt P33981); test: Immunoblot of TTK in HiBiT-TTK cells; format: cell-based; design: endogenous in cells; host or cells: naive MV4-11; settings: 6 h, 10 µM
T1 sequence (P33981 1-857): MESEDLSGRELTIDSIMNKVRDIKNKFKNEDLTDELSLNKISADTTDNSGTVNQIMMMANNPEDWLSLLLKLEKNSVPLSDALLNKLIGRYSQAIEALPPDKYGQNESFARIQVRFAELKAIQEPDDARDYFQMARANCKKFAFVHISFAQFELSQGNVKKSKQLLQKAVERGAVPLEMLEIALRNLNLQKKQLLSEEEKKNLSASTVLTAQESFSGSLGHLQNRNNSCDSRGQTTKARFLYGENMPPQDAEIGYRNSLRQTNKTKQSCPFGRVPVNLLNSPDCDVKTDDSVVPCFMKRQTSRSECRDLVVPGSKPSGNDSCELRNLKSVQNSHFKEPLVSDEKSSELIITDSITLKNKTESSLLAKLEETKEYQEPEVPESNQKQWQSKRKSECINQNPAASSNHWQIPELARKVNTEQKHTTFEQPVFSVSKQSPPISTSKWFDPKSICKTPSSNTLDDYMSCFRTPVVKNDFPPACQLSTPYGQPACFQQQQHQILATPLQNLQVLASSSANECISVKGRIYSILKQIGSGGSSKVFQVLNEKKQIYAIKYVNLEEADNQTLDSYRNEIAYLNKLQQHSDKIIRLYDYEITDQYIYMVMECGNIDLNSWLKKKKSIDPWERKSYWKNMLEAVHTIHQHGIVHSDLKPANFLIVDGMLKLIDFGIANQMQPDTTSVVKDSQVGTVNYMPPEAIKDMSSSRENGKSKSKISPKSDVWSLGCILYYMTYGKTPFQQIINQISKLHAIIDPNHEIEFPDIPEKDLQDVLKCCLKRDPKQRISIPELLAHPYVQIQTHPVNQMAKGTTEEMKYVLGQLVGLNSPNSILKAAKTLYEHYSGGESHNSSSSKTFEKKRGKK
Protocol: The cells were treated with compounds or vehicle for indicated time points and lysed in RIPA lysis buffer (50 mM HEPES pH 7.9, 140 mM NaCl, 1 mM EDTA, 1% Triton X-100, 0.1% SDS, 0.1% sodium deoxycholate) containing protease and phosphatase inhibitors (Sigma) for 20 min at 4 °C. Cell lysates were cleared by centrifugation, and protein concentration was determined with bicinchoninic acid assay. Equal amounts of protein per sample were separated by Bis-Tris-PAGE and transferred to PVDF membranes (Millipore). The membranes were blocked with 5% (w/v) nonfat dry milk in TBS-T [20 mM Tris–HCl, pH 7.5, 150 mM NaCl, 0.1% (v/v) Tween-20] for 1 h at room temperature and incubated with primary antibody at 4 °C overnight. Visualization was carried out using horseradish peroxidase (HRP)-labeled secondary antibodies and detected using a chemiluminescent HRP substrate (Millipore) in LAS3000 or LAS4000 mini (Fujifilm). Vinculin, GAPDH, or B-actin were used as a loading control. The loading control was probed along with the target antibody by cutting the membrane. For targets with similar molecular weights, the samples were run in duplicate and probed with their respective loading controls, although only one control was shown in the figure for all targets. The signal was quantified using ImageJ or Image Studio Lite against the corresponding loading controls. […]

[2] = Stability in buffer solutions (LC-ESI-MS); format: physicochemical; settings: for residual concentration (% of initial concentration): after 24 h
Protocol: Lastly, to gain a first insight into the stability of the synthesized compounds in a biological system, the stability of one of the degraders was examined at two different pH values and in human plasma (Figures S8 and S9). We chose one of the best degraders of the SF1 series, 20 as it also resembled the best degrader from azareversine series 19 in terms of the linker and E3-binding moiety. All experiments were carried out at 37 °C, and aliquots were analyzed using LC-ESI-MS at predetermined time points. […] We concluded from the stability profile of 20 that it is sufficient for further testing. […]
Stability in Buffer Solutions
The stability of the conjugate was examined by performing chemostability experiments at two different buffer solutions (pH = 5.2 and 7.4). Conjugate 20 was dissolved in 5 µL DMSO and transferred to 0.5 mL of the relevant buffer solution (acetate or phosphate aquatic buffer solutions). The mixture was then incubated at 37 °C, samples were collected at predetermined time points (0, 1, 2, 3, 4, 5, 24 and 48 h), and analyzed by LC-MS.
Results are presented as the mean ± of SD after repeating the experiment three times.
Figure S9: ESI-LCMS charts detected at 254 nm of conjugate 20 at pΗ5.2 and selected time intervals

| Structure (SMILES) | relative TTK level (immunoblot quantification, vehicle = 1.00) [1] | residual concentration (% of initial concentration) ([2]; pH 5.2, 37 °C) | stability at both pH values ([2]; pH 5.2 and 7.4, 37 °C, for 8 h) | residual concentration (% of initial concentration) ([2]; pH 7.4, 37 °C) |
| --- | --- | --- | --- | --- |
| Cc1ncsc1-c1ccc(CNC(=O)[C@@H]2C[C@@H](O)CN2C(=O)[C@@H](NC(=O)COCCOCC(=O)N2CCN(c3ccc(Nc4nc(Nc5ccccc5S(=O)(=O)C(C)C)c5nc[nH]c5n4)cc3)CC2)C(C)(C)C)cc1 [Compound 49] | 0.48 | – | – | – |
| CC(C)S(=O)(=O)c1ccccc1Nc1nc(Nc2ccc(N3CCN(C(=O)CNC(=O)CCCC(=O)Nc4cccc5c4C(=O)N(C4CCC(=O)NC4=O)C5=O)CC3)cc2)nc2[nH]cnc12 (stereo not shown) [Compound 20] | – | 56% | stable | 11.2% |

Reference: PMC11555526, “Development of 2-Aminoadenine-Based Proteolysis-Targeting Chimeras (PROTACs) as Novel Potent Degraders of Monopolar Spindle 1 and Aurora Kinases” (ACS Pharmacology & Translational Science, 2024)
